The test deals with ZR-75-1. Kind of test: ZR-75-1 proliferation assay (CellTiter-Glo, day 14). Particulars: Homo sapiens, 336 h, CTG assay day 14; for IC50: ZR-75-1 proliferation; for Emax: inhibition of ZR-75-1 proliferation, read-out: Maximum inhibition rate/Imax %. The format is cell-based. The source says: Test Example 4: ZR-75-1 Proliferation Assay
I. Reagents and Instruments
• 1. ZR-75-1 (ATCC CRL1500) • 2. 1640 medium (Gibco, 22400-089) • 3. 0.25% trypsin-EDTA (1×) (Gibco, 25200-072) • 4. Penicillin-streptomycin (Gibco, 15140-122) • 5. DPBS (1×) (Gibco, 14190-144) • 6. FBS (Gibco, 10091148) • 7. Assay plate, 96-well, black with clear bottom (Corning, 3603) • 8. 96-well non-treated round-bottom plate (JET BIOFIL, TCP-002-096) • 9. CellTiter-Glo buffer (Promega, G756B) • 10. CellTiter-Glo substrate (Promega, G755B) • 11. Automatic cell counter (Countstar, IC1000) • 12. Thermostatic incubator (Thermo, 1160) • 13. PHERAstar FS (BMG labtech, PHERAstar FS)
a. The state of cells was observed under a microscope to make sure that the cell confluence was about 90%.
b. The cell supernatant was discarded. The cells were rinsed with DPBS once, and the DPBS was removed. The cells were digested with a proper amount of trypsin and left to stand at 37° C. for 5 min.
c. The digestion was stopped with an equal volume of 1640 medium containing 10% FBS, and the cell suspension was collected and centrifuged at 300 g for 3 min. The cells were suspended in a proper amount of fresh medium.
d. The resulting cell suspension was collected and cell counting was performed.
e. The cell suspension was diluted to 5×10^4/mL, 50 μL/well with 1640 medium containing 10% FBS. Each well contained 2500 ZR-75-1 cells.
f. The cell culture plates were incubated overnight in a 37° C., 5% carbon dioxide incubator.
2. Compound Addition (Day 1)
a. Each compound was serially diluted in DMSO to 9 concentration points (initial concentration of 100 μM, 3-fold dilution; the highest concentration of each compound may be adjusted depending on its IC50). For example, in a 96-well non-treated round-bottom plate, 3 μL of compound was serially diluted in 6 μL of DMSO.
b. Each concentration point of each compound was diluted 500-fold in the corresponding volume of 1640 medium.
c. 50 μL of diluted compound solution was added to the cell supernatant (50 μL/well) in each cell plate.
d. After the addition, the cell plates were incubated in a 37° C., 5% carbon dioxide incubator.
3. The Cells were Re-Digested and Plated, and the Compounds were Added (Day 7).
a. Six days after the addition, the compound-containing medium was discarded. Then the cells were rinsed with DPBS (150 μL/well), and the DPBS was immediately pipetted off.
b. The cells were digested with 50 μL of trypsin and left to stand at 37° C. for 3 min, and then the digestion was stopped with 1640 medium containing 10% FBS (150 μL/well).
c. The cells were well mixed using a pipette and re-plated at a ratio of 1:8; that is, 25 μL of cell suspension was pipetted into a new 96-well plate (25 μL of 1640 medium containing 10% FBS had been added to the new plate in advance).
d. Compound solution preparation and addition (50 μL/well) were performed according to steps a to c in 2.
e. After the addition, the cell plates were incubated in a 37° C., 5% carbon dioxide incubator.
a. CellTiter-Glo buffer and lyophilized CellTiter-Glo substrate were equilibrated to room temperature before use and were well mixed to prepare a 100-mL CellTiter-Glo reagent (or a prepared CellTiter-Glo reagent was removed from a −20° C. freezer and equilibrated to room temperature).
b. The plates to be tested were removed from the incubator and equilibrated to room temperature, and the CellTiter-Glo reagent was added at 50 μL/well.
c. The plates were shaken for 2 min so that the cells were completely lysed.
d. After the plates were left to stand at room temperature for 28 min and signals were stable, the plates were tested on PHERAstar FS.

Experimental findings from US20250145637A1, “SULFONAMIDE DERIVATIVE, PREPARATION METHOD THEREFOR AND MEDICAL USE THEREOF” (Jiangsu Hengrui Pharmaceuticals Co. Ltd., priority 2021, published 2025) are described below.

As for `COc1ccc(F)cc1S(=O)(=O)Nc1noc2cc(Cn3cccn3)c3c(c12)OCCC3` [Compound 9, N-(5-((1H-pyrazol-1-yl)methyl)-3,4-dihydro-2H-chromeno[8,7-d]isoxazol-9-yl)-5-fluoro-2-methoxybenzenesulfonamide], 1.6 nM corresponded to half-maximal inhibition (IC50) and the Emax came out at 96.2%.

For `COc1cccc(OC(F)(F)F)c1S(=O)(=O)Nc1noc2cc(Cn3cccn3)c3c(c12)OCCC3` [Compound 10, N-(5-((1H-pyrazol-1-yl)methyl)-3,4-dihydro-2H-chromeno[8,7-d]isoxazol-9-yl)-2-methoxy-6-(trifluoromethoxy)benzenesulfonamide], the IC50 was 2.95 nM and the Emax amounted to 94.1%.

Turning to `COc1cccc(OC)c1S(=O)(=O)Nc1noc2cc(Cn3cccn3)c3c(c12)OCCC3` [Compound 2, N-(5-((1H-pyrazol-1-yl)methyl)-3,4-dihydro-2H-chromeno[8,7-d]isoxazol-9-yl)-2,6-dimethoxybenzenesulfonamide], the IC50 was determined as 0.4 nM and the Emax worked out at 96%.

Consider `CCOc1cc(C)ccc1S(=O)(=O)Nc1noc2cc(Cn3cccn3)c3c(c12)OCCC3` [Compound 7, N-(5-((1H-pyrazol-1-yl)methyl)-3,4-dihydro-2H-chromeno[8,7-d]isoxazol-9-yl)-2-ethoxy-4-methylbenzenesulfonamide], for which the IC50 worked out at 1.6 nM and the Emax was determined as 95.6%.

As for `COc1ccccc1S(=O)(=O)Nc1noc2cc(Cn3cccn3)c3c(c12)OCCC3` [Compound 3, N-(5-((1H-pyrazol-1-yl)methyl)-3,4-dihydro-2H-chromeno[8,7-d]isoxazol-9-yl)-2-methoxybenzenesulfonamide], the IC50 was found to be 1.9 nM and the Emax came to 95%.

As to `COc1cccc(OC)c1S(=O)(=O)Nc1noc2cc(Cn3cccn3)c3c(c12)OCC3` [Compound 1, N-(4-((1H-pyrazol-1-yl)methyl)-2,3-dihydrobenzofuro[7,6-d]isoxazol-8-yl)-2,6-dimethoxybenzenesulfonamide], half-maximal inhibition (IC50) was put at 1.4 nM and the Emax stood at 96%.

In the case of `COc1ccccc1S(=O)(=O)Nc1noc2cc(Cn3cccn3)c3c(c12)OCC3` [Compound 20, N-(4-((1H-pyrazol-1-yl)methyl)-2,3-dihydrobenzofuro[7,6-d]isoxazol-8-yl)-2-methoxybenzenesulfonamide], the IC50 turned out to be 8.6 nM and the Emax worked out at 94.9%.

Consider `Cc1ccc(S(=O)(=O)Nc2noc3cc(Cn4cccn4)c4c(c23)OCCC4)c(OCC(F)(F)F)c1` [Compound 8, N-(5-((1H-pyrazol-1-yl)methyl)-3,4-dihydro-2H-chromeno[8,7-d]isoxazol-9-yl)-4-methyl-2-(2,2,2-trifluoroethoxy)benzenesulfonamide], for which 2.6 nM corresponded to half-maximal inhibition (IC50) and the Emax stood at 96.3%.

With `COc1cccc(OC)c1S(=O)(=O)Nc1noc2cc(Cn3cccn3)c3c(c12)OC(F)(F)O3` [Compound 5, N-(4-((1H-pyrazol-1-yl)methyl)-2,2-difluoro-[1,3]dioxolo[4′,5′:5,6]benzo[1,2-d]isoxazol-8-yl)-2,6-dimethoxybenzenesulfonamide], inhibition was half-maximal at 0.9 nM (IC50) and the Emax worked out at 98%.

As to `COc1cccc(OC(F)(F)F)c1S(=O)(=O)Nc1noc2cc(Cn3cccn3)c3c(c12)OCC3` [Compound 23, N-(4-((1H-pyrazol-1-yl)methyl)-2,3-dihydrobenzofuro[7,6-d]isoxazol-8-yl)-2-methoxy-6-(trifluoromethoxy)benzenesulfonamide], the IC50 came to 10.9 nM and the Emax is 90.8%.

By IC50 is commonly meant the concentration that inhibits the measured activity by half. The low end stands for higher potency, the high end for lower potency.
